Experimental data published in patent US20200063169A1, “METHODS AND COMPOSITIONS FOR THE PRODUCTION OF LIPIDS” (THE UNIVERSITY OF BRITISH COLUMBIA, priority 2017, published 2020).

What was measured:
FcrA [1] = assay: FcrA activity assays (spectrophotometric, NADPH oxidation / DTNB); format: biochemical, Rhodococcus jostii RHA1; conditions: for Specific Activity: 5 μM acyl-CoA, 200 μM NADPH, pH 7.0, 25° C.
Description: FcrA activity was evaluated using two spectrophotometric assays. Assays were performed at 25° C. in 1 mL 20 mM MOPS, 80 mM NaCl, pH 7.0 (I=0.1 M) containing 5 μM acyl-CoA and 200 μM NADPH. Reactions were initiated by the addition of FcrA to a final concentration of 0.5 to 2 μM. In one assay, the oxidation of NADPH was followed at 340 nm (E=6.3 mM mM^−1 cm^−1 [43]). In the second assay, the reaction mixture also contained 0.1 mg/mL DTNB, and the formation of NTB^2− was followed at 412 nm (E=14.15 mM^−1 cm^−1 for NTB^2−[44]). Reaction rates were calculated from progress curves using Cary WinUV Kinetics Application (Agilent). The pH-dependence of the reaction was evaluated using the DTNB assay and a series of 20 mM Good's buffers (MES, MOPS, HEPPS, or TAPS), 80 mM NaCl (I=0.1 M), pH 6 to 9.
Because related two-domain enzymes completely reduce acyl-CoAs to fatty alcohols and have been used in biotechnology applications, further efforts were focused on exploring the function of FcrA, To investigate the activity of FcrA, it was first produced as a C-terminally His-tagged protein in RHA1 and purified to greater than 95% apparent homogeneity (FIG. 4A). The molecular mass of FcrA-His6 was 73627 Da, which corresponds to the mass of the protein (73758 Da) less the N-terminal methionine (131 Da). Then, to evaluate the ability of FcrA to catalyze the formation of fatty alcohols, 1.4 μM FcrA was incubated with 400 μM NADPH and 100 μM oleoyl-CoA in 1 mL 20 mM Tris-HCl, pH 7.0, 50 mM NaCl for 20 h at room temperature. The reaction was quenched with 1 mL saturated NaCl and 100 μM of tetradecanol was added as a standard. […] No alcohol was detected in control reactions in which FcrA was omitted. […] As with previously characterized FARs, activity was maximal at pH 7.0. […] Among the tested substrates, FcrA had highest specific activity for stearoyl-CoA (C18-CoA), reducing it at a rate of 45±3 nmol/mg·min. The specific activity of FcrA dropped off with decreasing chain length of the acyl-CoA substrate (Table 2).

FcrA [2] = assay: FcrA fatty alcohol formation, reaction products analysed by GC/MS; format: biochemical, Rhodococcus jostii RHA1; conditions: 1.4 μM FcrA, 400 μM NADPH, 100 μM oleoyl-CoA, pH 7.0, 20 h, room temperature
Description: To analyze fatty alcohols produced in vitro, quenched reactions of 2 mL were extracted with 5 mL of 2:1 chloroform:methanol (v/v). The organic phase was collected, washed once with 1:1 H2O:methanol, and three times with H2O. The organic phase was removed and dried under nitrogen stream. The extract was suspended in pyridine and derivatized with […] for 1 h at 60° C. Derivatized extracts were analyzed by gas chromatography-mass spectrometry (GC/MS) as described below.
Analyses were performed using an Agilent 6890n gas chromatograph system fitted with an HP-5 MS 30 m×0.25 mm capillary column (Hewlett-Packard) and an Agilent 5973n mass-selective detector. […] WEs were further identified by comparison to an authentic stearyl stearate standard and were quantified using a standard curve generated using palmityl myristate (Nu-Chek Prep).
Because related two-domain enzymes completely reduce acyl-CoAs to fatty alcohols and have been used in biotechnology applications, further efforts were focused on exploring the function of FcrA, To investigate the activity of FcrA, it was first produced as a C-terminally His-tagged protein in RHA1 and purified to greater than 95% apparent homogeneity (FIG. 4A). […] No alcohol was detected in control reactions in which FcrA was omitted. […]

Row | SMILES | Specific Activity (FcrA [1]; FcrA with acyl-CoA substrate) | also measured
1 | CCCCCCCCCCCC(=O)SCCNC(=O)CCNC(=O)[C@H](O)C(C)(C)COP(=O)(O)OP(=O)(O)OC[C@H]1O[C@@H](n2cnc3c(N)ncnc32)[C@H](O)[C@@H]1OP(=O)(O)O [Lauroyl-CoA] | 1.5 ± 0.3 nmol/min/(mg protein) | –
2 | CCCCCCCCCCCCCCCCCC(=O)SCCNC(=O)CCNC(=O)[C@H](O)C(C)(C)COP(=O)(O)OP(=O)(O)OC[C@H]1O[C@@H](n2cnc3c(N)ncnc32)[C@H](O)[C@@H]1OP(=O)(O)O [Stearoyl-CoA] | 45 ± 3 nmol/min/(mg protein) | specific activity (rate of reduction by FcrA) (FcrA [1]; FcrA with acyl-CoA substrate): 45 ± 3 nmol/mg/min
3 | CCCCCCCCCCCCCCCC(=O)SCCNC(=O)CCNC(=O)[C@H](O)C(C)(C)COP(=O)(O)OP(=O)(O)OC[C@H]1O[C@@H](n2cnc3c(N)ncnc32)[C@H](O)[C@@H]1OP(=O)(O)O [Palmitoyl-CoA] | 7.0 ± 0.1 nmol/min/(mg protein) | –
4 | NC(=O)C1=CN([C@@H]2O[C@H](COP(=O)(O)OP(=O)(O)OC[C@H]3O[C@@H](n4cnc5c(N)ncnc54)[C@H](O)[C@@H]3O)[C@@H](O)[C@H]2O)C=CC1 [NADH] | – | FcrA activity with cofactor in place of NADPH (FcrA [1]; NADPH substituted with NADH): no activity was detected
5 | CCCCCCCC/C=C\CCCCCCCC(=O)SCCNC(=O)CCNC(=O)[C@H](O)C(C)(C)COP(=O)(O)OP(=O)(O)OC[C@H]1O[C@@H](n2cnc3c(N)ncnc32)[C@H](O)[C@@H]1OP(=O)(O)O [Oleoyl-CoA] | 41 ± 1 nmol/min/(mg protein) | rate of reduction by FcrA compared with stearoyl-CoA (FcrA [1]; monounsaturated acyl-CoA substrate): reduced at a similar rate to stearoyl-CoA; conversion of acyl-CoA to fatty alcohol by FcrA (FcrA [2]): converted oleoyl-CoA to oleyl alcohol
